The values that follow come from patent US7314870B2, “Compounds, their preparation and use” (Neurosearch A/S, priority 2001, dated 2008).

Structures can show the parent of a compound that is named as a salt. Where two headings read alike, the source gives them in different places.

Usually IC50 stands for the concentration at which inhibition is half-maximal.

For one experiment, the target named is T1, serotonin transporter (Rattus norvegicus, UniProt P31652).
T1 construct: Cerebral cortices from male Wistar rats (150-200 g) are homogenized; from tissue; host or cells: rat cerebral cortex synaptosomes (P2 pellet)
The experiment can be described thus: In vitro inhibition of 3H-5-hydroxytryptamine uptake in cortical synaptosomes. It is filed as biochemical. The conditions noted are these: 1 nM 3H-5-HT, 30 minutes at 37° C. As to the method: In Vitro Inhibition of ^3H-5-Hydroxytyptamine Uptake in Cortical Synaptosomes
Serotonin transporters/uptake sites on nerve terminals presumably function to terminate neuronal signaling by removing serotonin from the synaptic cleft. The activity of the serotonin transporter integral protein can be measured in vitro by synaptosomal uptake of ^3H-5-hydroxytryptamine (5-HT, serotonin).
Preparations are performed at 0-4° C. Cerebral cortices from male Wistar rats (150-200 g) are homogenized for 5-10 seconds in 100 volumes of ice-cold 0.32 M sucrose containing 1 mM pargyline, using a motor driven teflon pestle in a glass homogenizing vessel. Monoamine oxidase activity is inhibited in the presence of pargyline.
The homogenate is subjected to centrifugation at 1000×g for 10 minutes. The resulting supernatant is then centrifuged at 27,000×g for 50 minutes and the supernatant is discarded. […]
Aliquots of 4.0 ml tissue suspension are added to 100 μl of test solution and 100 μl of ^3H-5-HT (1 nM, final concentration), mixed and incubated for 30 minutes at 37° C. Non-specific uptake is determined using Citalopram (1 μM, final concentration, available from Lundbeck, Denmark). […]
The amount of radioactivity on the filters is determined by conventional liquid scintillation counting. Specific uptake is calculated as the difference between total uptake and non-specific uptake. […]

The target in experiment [1] is T2, α7-subtype of nicotinic receptors (Rattus norvegicus, UniProt Q05941).
T2 construct: Cerebral cortices from male Wistar rats (150-250 g) are homogenised; from tissue; host or cells: rat cerebral cortex membrane homogenate
The experiment can be described thus: In vitro inhibition of 3H-α-bungarotoxine binding in rat brain.

T2 sequence (Q05941 23-502): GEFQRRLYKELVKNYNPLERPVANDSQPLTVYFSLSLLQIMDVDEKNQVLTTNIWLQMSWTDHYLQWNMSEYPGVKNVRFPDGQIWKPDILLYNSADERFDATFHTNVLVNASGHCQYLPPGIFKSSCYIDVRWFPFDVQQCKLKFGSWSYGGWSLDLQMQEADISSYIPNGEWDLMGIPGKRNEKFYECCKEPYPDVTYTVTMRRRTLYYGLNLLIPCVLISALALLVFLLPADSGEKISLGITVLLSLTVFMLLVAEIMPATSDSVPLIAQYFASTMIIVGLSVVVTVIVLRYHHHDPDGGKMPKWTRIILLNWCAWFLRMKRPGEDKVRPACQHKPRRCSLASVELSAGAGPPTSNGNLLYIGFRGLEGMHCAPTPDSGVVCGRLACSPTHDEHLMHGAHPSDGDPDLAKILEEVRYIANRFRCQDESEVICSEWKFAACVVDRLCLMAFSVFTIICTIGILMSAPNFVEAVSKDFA
T1 sequence (P31652 whole entry): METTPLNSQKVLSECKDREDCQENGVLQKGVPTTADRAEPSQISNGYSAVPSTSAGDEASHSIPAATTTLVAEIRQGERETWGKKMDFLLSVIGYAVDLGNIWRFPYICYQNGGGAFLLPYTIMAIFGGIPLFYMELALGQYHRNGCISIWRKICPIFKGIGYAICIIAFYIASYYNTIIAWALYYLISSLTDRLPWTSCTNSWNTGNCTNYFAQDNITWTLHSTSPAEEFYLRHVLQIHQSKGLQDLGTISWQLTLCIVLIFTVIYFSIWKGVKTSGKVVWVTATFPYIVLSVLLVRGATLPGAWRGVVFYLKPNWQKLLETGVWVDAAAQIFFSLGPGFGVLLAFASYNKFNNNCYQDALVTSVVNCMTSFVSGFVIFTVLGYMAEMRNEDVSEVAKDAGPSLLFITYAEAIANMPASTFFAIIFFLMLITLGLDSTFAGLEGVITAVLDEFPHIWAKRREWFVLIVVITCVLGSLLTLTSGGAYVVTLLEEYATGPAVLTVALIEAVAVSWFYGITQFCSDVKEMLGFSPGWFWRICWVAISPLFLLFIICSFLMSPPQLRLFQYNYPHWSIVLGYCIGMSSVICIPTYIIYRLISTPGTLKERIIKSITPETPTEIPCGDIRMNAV

`O=S1(=O)C(C2=CC3CCC(C2)N3)=Cc2ccccc21` (racemic) [Compound 1, (±)-3-(2-Benzo[b]thiophenyl-1,1-dioxide)-8-H-8-azabicyclo[3.2.1]oct-2-ene fumaric acid salt] yielded an IC50 on serotonin transporter of 190 nM.
For the molecule `CN1C2C=C(C3=Cc4ccccc4S3(=O)=O)CC1CC2` (racemic) [Compound 2, (±)-3-2-Benzo[b]thiophenyl-1,1-dioxide)-8-methyl-8-azabicyclo[3.2.1]oct-2-ene fumaric acid salt], the results for the IC50 (in experiment [1]; against serotonin transporter) were 18 nM and 660 nM, respectively.
Consider `C=CCN1C2C=C(C3=Cc4ccccc4S3(=O)=O)CC1CC2` (racemic) [Compound 3, (±)-3-(2-Benzo[b]thiophenyl-1,1-dioxide)-8-allyl-8-azabicyclo[3.2.1]oct-2-ene], for which, in experiment [1] (rat cerebral cortex homogenate, 2 nM 3H-α-bungarotoxine, 2 hours at 37° C, read-out: Inhibition of 3H-α-Bungarotoxine Binding IC50), the IC50 turned out to be 850 nM.
